# Experimental data taken from the supplement of paper PMC10307832.
# Columns and labels:
# Experiment in all cases: relative viability (nuclei count vs DMSO), 5 days (fraction); higher = more cells survive
# KIN001-266 = compound: CCN1CCC(CC1)N2C=C(N=N2)CNC3=CC4=C(C(=CN=C4C(=C3)Cl)C#N)NC5=CC(=C(C=C5)F)Cl [KIN001-266]
# Procedure, shortened: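 Viability is treated-well nuclei as a fraction of vehicle-well nuclei, reported as the median across plates. Before counting, lung cancer cell lines were kept overnight at 37 °C in 1536-well plates, pinned with five √10-spaced library-drug doses on vehicle-anchored plates, and left 5 days without medium change, then fixed, permeabilised and Hoechst-stained in one step, imaged at 4× and counted by MetaXpress. A plate passed only if control CV was below 25% and at least one doubling occurred.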
# KIN001-266 + Trametinib = compound: CCN1CCC(CC1)N2C=C(N=N2)CNC3=CC4=C(C(=CN=C4C(=C3)Cl)C#N)NC5=CC(=C(C=C5)F)Cl [KIN001-266] + CC(=O)Nc1cccc(-n2c(=O)n(C3CC3)c(=O)c3c(Nc4ccc(I)cc4F)n(C)c(=O)c(C)c32)c1 [Trametinib] (partner 0.02 µM)
# Procedure, shortened: (§1)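 Dosing by pin tool came one day after lung cancer cell lines were seeded in 1536-well plates, using either one drug or a fixed anchor-drug dose plus five library-drug doses (not always all listed) in √10 steps. After 5 days, nuclei were counted on 4× images. Relative viability is treated-well nuclei count divided by vehicle-well nuclei count, and values are medians of duplicate plates.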
# KIN001-266 + Palbociclib = compound: CCN1CCC(CC1)N2C=C(N=N2)CNC3=CC4=C(C(=CN=C4C(=C3)Cl)C#N)NC5=CC(=C(C=C5)F)Cl [KIN001-266] + CC(=O)c1c(C)c2cnc(Nc3ccc(N4CCNCC4)cn3)nc2n(C2CCCC2)c1=O [Palbociclib] (partner 0.5 µM)
# Procedure, shortened: as §1
# KIN001-266 + Luminespib = compound: CCN1CCC(CC1)N2C=C(N=N2)CNC3=CC4=C(C(=CN=C4C(=C3)Cl)C#N)NC5=CC(=C(C=C5)F)Cl [KIN001-266] + CCNC(=O)c1noc(-c2cc(C(C)C)c(O)cc2O)c1-c1ccc(CN2CCOCC2)cc1 [Luminespib] (partner 0.01 µM)
# Procedure, shortened: as §1
# KIN001-266 + OSI-027 = compound: CCN1CCC(CC1)N2C=C(N=N2)CNC3=CC4=C(C(=CN=C4C(=C3)Cl)C#N)NC5=CC(=C(C=C5)F)Cl [KIN001-266] + COc1cccc2cc(-c3nc([C@H]4CC[C@H](C(=O)O)CC4)n4ncnc(N)c34)[nH]c12 [OSI-027] (partner 0.5 µM)
# Procedure, shortened: as §1
# KIN001-266 + Tozasertib = compound: CCN1CCC(CC1)N2C=C(N=N2)CNC3=CC4=C(C(=CN=C4C(=C3)Cl)C#N)NC5=CC(=C(C=C5)F)Cl [KIN001-266] + Cc1cc(Nc2cc(N3CCN(C)CC3)nc(Sc3ccc(NC(=O)C4CC4)cc3)n2)n[nH]1 [Tozasertib] (partner 0.1 µM)
# Procedure, shortened: as §1
# KIN001-266 + Dasatinib = compound: CCN1CCC(CC1)N2C=C(N=N2)CNC3=CC4=C(C(=CN=C4C(=C3)Cl)C#N)NC5=CC(=C(C=C5)F)Cl [KIN001-266] + Cc1nc(Nc2ncc(C(=O)Nc3c(C)cccc3Cl)s2)cc(N2CCN(CCO)CC2)n1 [Dasatinib] (partner 0.075 µM)
# Procedure, shortened: as §1
# KIN001-266 + Phenformin = compound: CCN1CCC(CC1)N2C=C(N=N2)CNC3=CC4=C(C(=CN=C4C(=C3)Cl)C#N)NC5=CC(=C(C=C5)F)Cl [KIN001-266] + N=C(N)NC(=N)NCCc1ccccc1 [Phenformin] (partner 250 µM)
# Procedure, shortened: as §1
# KIN001-266 + AZD7762 = compound: CCN1CCC(CC1)N2C=C(N=N2)CNC3=CC4=C(C(=CN=C4C(=C3)Cl)C#N)NC5=CC(=C(C=C5)F)Cl [KIN001-266] + NC(=O)Nc1cc(-c2cccc(F)c2)sc1C(=O)N[C@H]1CCCNC1 [AZD7762] (partner 0.2 µM)
# Procedure, shortened: as §1
# KIN001-266 + Pemetrexed = compound: CCN1CCC(CC1)N2C=C(N=N2)CNC3=CC4=C(C(=CN=C4C(=C3)Cl)C#N)NC5=CC(=C(C=C5)F)Cl [KIN001-266] + Nc1nc2[nH]cc(CCc3ccc(C(=O)N[C@@H](CCC(=O)O)C(=O)O)cc3)c2c(=O)[nH]1 [Pemetrexed] (partner 0.2 µM)
# Procedure, shortened: as §1
# KIN001-266 + Decitabine = compound: CCN1CCC(CC1)N2C=C(N=N2)CNC3=CC4=C(C(=CN=C4C(=C3)Cl)C#N)NC5=CC(=C(C=C5)F)Cl [KIN001-266] + Nc1ncn([C@H]2C[C@H](O)[C@@H](CO)O2)c(=O)n1 [Decitabine] (partner 2 µM)
# Procedure, shortened: as §1
# KIN001-266 + Vorinostat = compound: CCN1CCC(CC1)N2C=C(N=N2)CNC3=CC4=C(C(=CN=C4C(=C3)Cl)C#N)NC5=CC(=C(C=C5)F)Cl [KIN001-266] + O=C(CCCCCCC(=O)Nc1ccccc1)NO [Vorinostat] (partner 1 µM)
# Procedure, shortened: as §1
# KIN001-266 + Olaparib = compound: CCN1CCC(CC1)N2C=C(N=N2)CNC3=CC4=C(C(=CN=C4C(=C3)Cl)C#N)NC5=CC(=C(C=C5)F)Cl [KIN001-266] + O=C(c1cc(Cc2n[nH]c(=O)c3ccccc23)ccc1F)N1CCN(C(=O)C2CC2)CC1 [Olaparib] (partner 8 µM)
# Procedure, shortened: as §1
# KIN001-266 + Foretinib = compound: CCN1CCC(CC1)N2C=C(N=N2)CNC3=CC4=C(C(=CN=C4C(=C3)Cl)C#N)NC5=CC(=C(C=C5)F)Cl [KIN001-266] + COc1cc2c(Oc3ccc(NC(=O)C4(C(=O)Nc5ccc(F)cc5)CC4)cc3F)ccnc2cc1OCCCN1CCOCC1 [Foretinib] (partner 0.25 µM)
# Procedure, shortened: as §1
cell line,measurement,setting,value
NCI-H522,relative viability,KIN001-266; 0.08 µM,1.13
same,relative viability,KIN001-266; 0.253 µM,0.937
same,relative viability,KIN001-266; 0.8 µM,1.05
same,relative viability,KIN001-266; 2.53 µM,0.925
same,relative viability,KIN001-266; 8 µM,0.914
same,relative viability,KIN001-266 + Trametinib; first compound 0.08 µM,0.78
same,relative viability,KIN001-266 + Trametinib; first compound 0.253 µM,0.907
same,relative viability,KIN001-266 + Trametinib; first compound 0.8 µM,0.797
same,relative viability,KIN001-266 + Trametinib; first compound 2.53 µM,0.638
same,relative viability,KIN001-266 + Trametinib; first compound 8 µM,0.706
same,relative viability,KIN001-266 + Palbociclib; first compound 0.08 µM,1.04
same,relative viability,KIN001-266 + Palbociclib; first compound 0.253 µM,1.07
same,relative viability,KIN001-266 + Palbociclib; first compound 0.8 µM,0.952
same,relative viability,KIN001-266 + Palbociclib; first compound 2.53 µM,0.95
same,relative viability,KIN001-266 + Palbociclib; first compound 8 µM,0.804
same,relative viability,KIN001-266 + Luminespib; first compound 0.08 µM,1.09
same,relative viability,KIN001-266 + Luminespib; first compound 0.253 µM,1.19
same,relative viability,KIN001-266 + Luminespib; first compound 0.8 µM,0.99
same,relative viability,KIN001-266 + Luminespib; first compound 2.53 µM,0.912
same,relative viability,KIN001-266 + Luminespib; first compound 8 µM,1.05
same,relative viability,KIN001-266 + OSI-027; first compound 0.08 µM,0.879
same,relative viability,KIN001-266 + OSI-027; first compound 0.253 µM,0.74
same,relative viability,KIN001-266 + OSI-027; first compound 0.8 µM,0.677
same,relative viability,KIN001-266 + OSI-027; first compound 2.53 µM,0.659
same,relative viability,KIN001-266 + OSI-027; first compound 8 µM,0.659
same,relative viability,KIN001-266 + Tozasertib; first compound 0.08 µM,0.562
same,relative viability,KIN001-266 + Tozasertib; first compound 0.253 µM,0.498
same,relative viability,KIN001-266 + Tozasertib; first compound 0.8 µM,0.566
same,relative viability,KIN001-266 + Tozasertib; first compound 2.53 µM,0.502
same,relative viability,KIN001-266 + Tozasertib; first compound 8 µM,0.594
same,relative viability,KIN001-266 + Dasatinib; first compound 0.08 µM,0.919
same,relative viability,KIN001-266 + Dasatinib; first compound 0.253 µM,0.918
same,relative viability,KIN001-266 + Dasatinib; first compound 0.8 µM,0.853
same,relative viability,KIN001-266 + Dasatinib; first compound 2.53 µM,0.862
same,relative viability,KIN001-266 + Dasatinib; first compound 8 µM,0.934
same,relative viability,KIN001-266 + Phenformin; first compound 0.08 µM,0.656
same,relative viability,KIN001-266 + Phenformin; first compound 0.253 µM,0.641
same,relative viability,KIN001-266 + Phenformin; first compound 0.8 µM,0.653
same,relative viability,KIN001-266 + Phenformin; first compound 2.53 µM,0.629
same,relative viability,KIN001-266 + Phenformin; first compound 8 µM,0.591
same,relative viability,KIN001-266 + AZD7762; first compound 0.08 µM,0.951
same,relative viability,KIN001-266 + AZD7762; first compound 0.253 µM,0.85
same,relative viability,KIN001-266 + AZD7762; first compound 0.8 µM,0.786
same,relative viability,KIN001-266 + AZD7762; first compound 2.53 µM,0.822
same,relative viability,KIN001-266 + AZD7762; first compound 8 µM,0.79
same,relative viability,KIN001-266 + Pemetrexed; first compound 0.08 µM,1.06
same,relative viability,KIN001-266 + Pemetrexed; first compound 0.253 µM,1.01
same,relative viability,KIN001-266 + Pemetrexed; first compound 0.8 µM,1.01
same,relative viability,KIN001-266 + Pemetrexed; first compound 2.53 µM,1.06
same,relative viability,KIN001-266 + Pemetrexed; first compound 8 µM,0.932
same,relative viability,KIN001-266 + Decitabine; first compound 0.08 µM,0.651
same,relative viability,KIN001-266 + Decitabine; first compound 0.253 µM,0.609
same,relative viability,KIN001-266 + Decitabine; first compound 0.8 µM,0.777
same,relative viability,KIN001-266 + Decitabine; first compound 2.53 µM,0.702
same,relative viability,KIN001-266 + Decitabine; first compound 8 µM,0.678
same,relative viability,KIN001-266 + Vorinostat; first compound 0.08 µM,0.936
same,relative viability,KIN001-266 + Vorinostat; first compound 0.253 µM,0.887
same,relative viability,KIN001-266 + Vorinostat; first compound 0.8 µM,0.876
same,relative viability,KIN001-266 + Vorinostat; first compound 2.53 µM,0.979
same,relative viability,KIN001-266 + Vorinostat; first compound 8 µM,0.943
same,relative viability,KIN001-266 + Olaparib; first compound 0.08 µM,0.672
same,relative viability,KIN001-266 + Olaparib; first compound 0.253 µM,0.785
same,relative viability,KIN001-266 + Olaparib; first compound 0.8 µM,0.665
same,relative viability,KIN001-266 + Olaparib; first compound 2.53 µM,0.559
same,relative viability,KIN001-266 + Olaparib; first compound 8 µM,0.483
NCI-H1623,relative viability,KIN001-266; 0.08 µM,0.963
same,relative viability,KIN001-266; 0.253 µM,0.96
same,relative viability,KIN001-266; 0.8 µM,0.955
same,relative viability,KIN001-266; 2.53 µM,1.07
same,relative viability,KIN001-266; 8 µM,1.01
same,relative viability,KIN001-266 + Luminespib; first compound 0.08 µM,0.423
same,relative viability,KIN001-266 + Luminespib; first compound 0.253 µM,0.624
same,relative viability,KIN001-266 + Luminespib; first compound 0.8 µM,0.57
same,relative viability,KIN001-266 + Luminespib; first compound 2.53 µM,0.475
same,relative viability,KIN001-266 + Luminespib; first compound 8 µM,0.536
same,relative viability,KIN001-266 + Foretinib; first compound 0.08 µM,1.05
same,relative viability,KIN001-266 + Foretinib; first compound 0.253 µM,0.865
same,relative viability,KIN001-266 + Foretinib; first compound 0.8 µM,0.871
same,relative viability,KIN001-266 + Foretinib; first compound 2.53 µM,0.894
same,relative viability,KIN001-266 + Foretinib; first compound 8 µM,0.875
same,relative viability,KIN001-266 + OSI-027; first compound 0.08 µM,0.457
same,relative viability,KIN001-266 + OSI-027; first compound 0.253 µM,0.437
same,relative viability,KIN001-266 + OSI-027; first compound 0.8 µM,0.385
same,relative viability,KIN001-266 + OSI-027; first compound 2.53 µM,0.453
same,relative viability,KIN001-266 + OSI-027; first compound 8 µM,0.433
same,relative viability,KIN001-266 + Tozasertib; first compound 0.08 µM,0.468
same,relative viability,KIN001-266 + Tozasertib; first compound 0.253 µM,0.421
same,relative viability,KIN001-266 + Tozasertib; first compound 0.8 µM,0.461
same,relative viability,KIN001-266 + Tozasertib; first compound 2.53 µM,0.432
same,relative viability,KIN001-266 + Tozasertib; first compound 8 µM,0.422
same,relative viability,KIN001-266 + Dasatinib; first compound 0.08 µM,0.579
same,relative viability,KIN001-266 + Dasatinib; first compound 0.253 µM,0.514
same,relative viability,KIN001-266 + Dasatinib; first compound 0.8 µM,0.447
same,relative viability,KIN001-266 + Dasatinib; first compound 2.53 µM,0.547
same,relative viability,KIN001-266 + Dasatinib; first compound 8 µM,0.475
same,relative viability,KIN001-266 + Phenformin; first compound 0.08 µM,0.652
same,relative viability,KIN001-266 + Phenformin; first compound 0.253 µM,0.603
same,relative viability,KIN001-266 + Phenformin; first compound 0.8 µM,0.577
same,relative viability,KIN001-266 + Phenformin; first compound 2.53 µM,0.611
same,relative viability,KIN001-266 + Phenformin; first compound 8 µM,0.526
